Test results taken from patent publication US20070135398A1, “Process for the preparation of ciclesonide” (priority 2005, published 2007).

Experiments:
[1] = ester prodrug; Current Opinion in Investigational Drugs 2002, 3(1) 78-83; cited from earlier work
[2] = Decomposition in ethanol-water mixture; type: physicochemical; settings: 20 mg in 6 mL ethanol and 4 mL purified water, 80° C., 64 hours
Experimental: The HPLC analysis was carried out using the following equipment and methodology. The column was a Prodigy ODS, 220×4.6 mm, 5 μm. The eluent was ethanol/water 50/50 at a flow rate of 2 mL/min. The detector was an UV-DAD at 242 nm.
Decomposition in Ethanol-Water Mixture
20 mg ciclesonide were dissolved in 6 mL ethanol and 4 mL purified water and the solution was kept at 80° C. for 64 hours.

Question: Which results are given for `CC(C)C(=O)OCC(=O)[C@@]12O[C@H](C3CCCCC3)O[C@@H]1C[C@H]1[C@@H]3CCC4=CC(=O)C=C[C@]4(C)[C@H]3[C@@H](O)C[C@@]12C` [ciclesonide, pregna-1,4-diene-3,20-dione, 16,17-[[(R)-cyclohexylmethylene]bis(oxy)]-11-hydroxy-21-(2-methyl-1-oxopropoxy)-(11β,16α)-(9CI)]?
Answer: oral bioavailability [1]: essentially devoid of oral bioavailability; formation of the corresponding 21-hydroxy analogue [2]: 3.99%; purity after storage in ethanol/water solution ([2]; initial purity 99.74%): 95.34%
